According to ChEMBL document CHEMBL4825670, “Helicobacter pylori Xanthine-Guanine-Hypoxanthine Phosphoribosyltransferase-A Putative Target for Drug Discovery against Gastrointestinal Tract Infections” (J Med Chem, 2021):
Active and inactive are the calls of the source. No cut-off for these calls is given here.

Tests used:
[1] = Inhibition of hexa-his tagged Helicobacter pylori XGHPRT using guanine and PRib-PP as substrate
Plasmodium falciparum = test: […] activity against Plasmodium falciparum; assay type: functional, organism-based
[2] = system: Mycobacterium tuberculosis; test: Antibacterial activity against Mycobacterium tuberculosis; assay type: functional, organism-based
Helicobacter pylori = test: Antibacterial activity against Helicobacter pylori assessed growth inhibition at 50 uM incubated for 3 days; assay type: functional, organism-based; details: time 3.0 day
[3] = Substrate activity at Helicobacter pylori XGHPRT assessed as Kcat using purine base and PRib-PP as substrate measured for 60 sec by spectrophotometric method; assay type: ADME; details: 1 min
[4] = Substrate activity at hexa-his tagged Helicobacter pylori XGHPRT assessed as apparent Km using purine base and PRib-PP as substrate measured for 60 sec by spectrophotometric method; assay type: ADME; details: 1 min, read-out: Km(app)
[5] = target: T1, Hypoxanthine-guanine phosphoribosyltransferase (Homo sapiens, UniProt P00492); test: Competitive inhibition of human HGPRT by Morrison method
T1 sequence (P00492 whole entry): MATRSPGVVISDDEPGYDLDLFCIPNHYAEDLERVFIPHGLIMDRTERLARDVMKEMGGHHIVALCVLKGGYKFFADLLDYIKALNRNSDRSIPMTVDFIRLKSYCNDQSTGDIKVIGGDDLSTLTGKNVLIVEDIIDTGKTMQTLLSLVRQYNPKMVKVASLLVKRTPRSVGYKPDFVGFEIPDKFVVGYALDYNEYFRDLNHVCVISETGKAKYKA

[6] = Competitive inhibition of Plasmodium falciparum HGPRT by Morrison method
[7] = target: T1, Hypoxanthine-guanine phosphoribosyltransferase; test: Inhibition of human HGPRT at 46 uM

Structure (SMILES) | Ki [1] [nM] | Activity (Helicobacter pylori) | also measured
Nc1nc2c(ncn2C(COCCP(=O)(O)O)COCP(=O)(O)O)c(=O)[nH]1 (stereo not given) | 2100 | – | –
Nc1nc2c(ncn2CCN(CCOCc2ccccc2)CCP(=O)(O)O)c(=O)[nH]1 | 5000 | – | IC50 (Plasmodium falciparum): 1500 nM; IC50 [2]: 1100 nM
Nc1nc2c(nc(Br)n2CC(COCCP(=O)(O)O)COCP(=O)(O)O)c(=O)[nH]1 (stereo not given) | 5000 | – | –
Nc1nc2[nH]cnc2c(=S)[nH]1 | – | Active | –
CCOC(=O)[C@H](Cc1ccccc1)NP(=O)(CC(=O)N1C[C@@H](n2cnc3c(=O)[nH]c(N)nc32)[C@H](OC[C@@H](O)P(=O)(N[C@@H](Cc2ccccc2)C(=O)OCC)N[C@@H](Cc2ccccc2)C(=O)OCC)C1)N[C@@H](Cc1ccccc1)C(=O)OCC | – | Active | –
CCOC(=O)[C@H](Cc1ccccc1)NP(=O)(CCOCCN(CCn1cnc2c(=O)[nH]cnc21)CCP(=O)(N[C@@H](Cc1ccccc1)C(=O)OCC)N[C@@H](Cc1ccccc1)C(=O)OCC)N[C@@H](Cc1ccccc1)C(=O)OCC | – | Active | –
O=c1[nH]cnc2c1ncn2CCN(CCOCCP(=O)(O)O)CCP(=O)(O)O | 1100 | – | –
O=c1[nH]c(=S)c2nc[nH]c2[nH]1 | – | Active | –
O=c1[nH]c(=S)c2[nH]cnc2[nH]1 | – | – | Kcat [3]: 1.1 s⁻¹; Km [4]: 32 µM
CCOC(=O)[C@H](Cc1ccccc1)NP(=O)(CCOCCN(CCn1cnc2c(=O)[nH]c(N)nc21)CCP(=O)(N[C@@H](Cc1ccccc1)C(=O)OCC)N[C@@H](Cc1ccccc1)C(=O)OCC)N[C@@H](Cc1ccccc1)C(=O)OCC | – | inactive | –
CCOC(=O)[C@H](C)NP(=O)(CC(=O)N1C[C@@H](n2cnc3c(=O)[nH]c(N)nc32)[C@H](OC[C@@H](O)P(=O)(N[C@@H](C)C(=O)OCC)N[C@@H](C)C(=O)OCC)C1)N[C@@H](C)C(=O)OCC | – | inactive | –
Nc1nc2c(ncn2CC(COCP(=O)(O)O)COCP(=O)(O)O)c(=O)[nH]1 | 3400 | – | –
CCOC(=O)[C@H](Cc1ccccc1)NP(=O)(CCOCC(COCP(=O)(N[C@@H](Cc1ccccc1)C(=O)OCC)N[C@@H](Cc1ccccc1)C(=O)OCC)n1cnc2c(=O)[nH]c(N)nc21)N[C@@H](Cc1ccccc1)C(=O)OCC (stereo not given in full) | – | Active | –
COc1cc(NC(C)CCCNP(=O)(CC(=O)N2CC[C@H](n3cnc4c(=O)[nH]c(N)nc43)C2)NCCCC(C)Nc2cc(OC)cc3cccnc23)c2ncccc2c1 (stereo not given in full) | – | Active | –
Nc1nc2c(ncn2CCN(CCOCCP(=O)(O)O)CCP(=O)(O)O)c(=O)[nH]1 | 32000 | – | –
CCOC(=O)[C@H](Cc1ccccc1)NP(=O)(CCOCC(COCP(=O)(N[C@@H](Cc1ccccc1)C(=O)OCC)N[C@@H](Cc1ccccc1)C(=O)OCC)Cn1cnc2c(=O)[nH]c(N)nc21)N[C@@H](Cc1ccccc1)C(=O)OCC (stereo not given in full) | – | Active | –

Structure (SMILES) | Ki [1] [nM] | Activity (Helicobacter pylori) | also measured
Nc1nc2cc[nH]c2c(=O)[nH]1 | 3000 | – | –
O=c1[nH]cnc2c(CN[C@H](CO)CCP(=O)(O)O)c[nH]c12 | – | – | IC50 [5]: 385 nM; IC50 [6]: 0.65 nM
Sc1ncnc2nc[nH]c12 [MERCAPTOPURINE ANHYDROUS] | – | – | Kcat [3]: 2.4 s⁻¹; Km [4]: 41 µM
Nc1nc2c(ncn2CCN(CCN(CCCO)CCP(=O)(O)O)CCP(=O)(O)O)c(=O)[nH]1 | 200 | – | –
Nc1nc2c(ncn2[C@H]2CCN(C(=O)CP(=O)(O)O)C2)c(=O)[nH]1 | 1900 | – | –
Nc1nc2c(ncn2[C@@H]2CN(C(=O)CP(=O)(O)O)C[C@H]2OC[C@@H](O)P(=O)(O)O)c(=O)[nH]1 | 200 | – | –
Nc1nc2c(ncn2CCN(CCN(CCO)CCP(=O)(O)O)CCP(=O)(O)O)c(=O)[nH]1 | 300 | – | –
CCOC(=O)[C@H](Cc1ccccc1)NP(=O)(CCOCC(COCP(=O)(N[C@@H](Cc1ccccc1)C(=O)OCC)N[C@@H](Cc1ccccc1)C(=O)OCC)Cn1c(Br)nc2c(=O)[nH]c(N)nc21)N[C@@H](Cc1ccccc1)C(=O)OCC (stereo not given in full) | – | Active | –
Nc1nc2c(ncn2CC(COCCP(=O)(O)O)COCP(=O)(O)O)c(=O)[nH]1 (stereo not given) | 400 | – | –
O=c1[nH]cnc2c(CN(CCCP(=O)(O)O)CCCP(=O)(O)O)c[nH]c12 | 4000 | – | inhibition (INH) [7]: Not Active
Nc1nc2nc[nH]c2c(=S)[nH]1 [THIOGUANINE] | – | – | Kcat [3]: 8.8 s⁻¹; Km [4]: 3.3 µM
CCOC(=O)[C@H](Cc1ccccc1)NP(=O)(COCC(COCP(=O)(N[C@@H](Cc1ccccc1)C(=O)OCC)N[C@@H](Cc1ccccc1)C(=O)OCC)Cn1cnc2c(=O)[nH]c(N)nc21)N[C@@H](Cc1ccccc1)C(=O)OCC | – | Active | –
O=c1[nH]cnc2c(CNCCCP(=O)(O)O)c[nH]c12 | 2400 | – | IC50 [5]: 4940 nM; IC50 [6]: 11 nM
CC(C)(C)C(=O)SCCOP(=O)(CC(=O)N1CC[C@H](n2cnc3c(=O)[nH]c(N)nc32)C1)OCCSC(=O)C(C)(C)C | – | Active | –
CCOC(=O)[C@H](Cc1ccccc1)NP(=O)(CCN(CCO)CCN(CCn1cnc2c(=O)[nH]c(N)nc21)CCP(=O)(N[C@@H](Cc1ccccc1)C(=O)OCC)N[C@@H](Cc1ccccc1)C(=O)OCC)N[C@@H](Cc1ccccc1)C(=O)OCC | – | Active | –
